Experimental data from ChEMBL document CHEMBL4425114, “Development of Novel Alkoxyisoxazoles as Sigma-1 Receptor Antagonists with Antinociceptive Efficacy” (J Med Chem, 2016).
Calls of active or inactive are those of the source. The calls are words filed in the database; no cut-off is given here.

Key:
[1] = Tmax in Kun Ming mouse brain at 40 mg/kg, po by LC-MS/MS analysis; type: ADME, organism-based
[2] = molecular target: Sigma non-opioid intracellular receptor 1 (Rattus norvegicus) (UniProt Q9R0C9); assay: Displacement of [3H]-pentazocine from rat brain sigma1 receptor at 10 uM by PDSP assay
Mus musculus [3] = assay: Antinociceptive activity in Kun Ming mouse assessed as reduction in paw licking and flinching time at 40 mg/kg, ip administered 15 mins prior to formalin challenge measured after 0 to 10 mins post formalin dosing relative to vehicle-treated control; type: functional, organism-based
Mus musculus [4] = assay: Antinociceptive activity in Kun Ming mouse assessed as reduction in paw licking and flinching time at 80 mg/kg, ip administered 15 mins prior to formalin challenge measured up to 45 mins post formalin dosing relative to vehicle-treated control; type: functional, organism-based
[5] = Cmax in Kun Ming mouse brain at 40 mg/kg, po by LC-MS/MS analysis; type: ADME, organism-based; set-up: dose 40 mg/kg, route oral
[6] = AUC (0 to infinity) in Kun Ming mouse brain at 40 mg/kg, po by LC-MS/MS analysis; type: ADME, organism-based; set-up: dose 40 mg/kg, route oral, time infinity; settings: in vivo
[7] = Mean residence time in Kun Ming mouse plasma at 40 mg/kg, po by LC-MS/MS analysis; type: ADME, organism-based
[8] = AUMC (0 to infinity) in Kun Ming mouse plasma at 40 mg/kg, po by LC-MS/MS analysis; type: ADME, organism-based; settings: in vivo
[9] = molecular target: T1, Sigma intracellular receptor 2 (Rattus norvegicus, UniProt Q5U3Y7); assay: Displacement of [3H]DTG from rat brain sigma2 receptor by PDSP assay
T1 sequence (Q5U3Y7 whole entry): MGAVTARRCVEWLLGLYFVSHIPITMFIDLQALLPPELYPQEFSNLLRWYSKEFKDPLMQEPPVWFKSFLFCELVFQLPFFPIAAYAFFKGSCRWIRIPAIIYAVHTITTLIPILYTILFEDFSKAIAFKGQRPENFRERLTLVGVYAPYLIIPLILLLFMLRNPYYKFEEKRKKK

[10] = AUMC (0 to 8 hrs) in Kun Ming mouse plasma at 40 mg/kg, po by LC-MS/MS analysis; type: ADME, organism-based; settings: in vivo
[11] = Toxicity in Kun Ming mouse assessed as decrease in rotarod latency at 40 and 80 mg/kg, ip measured after 60 to 120 mins by rotarod test relative to vehicle-treated control; type: organism-based; settings: in vivo
[12] = Half life in Kun Ming mouse brain at 40 mg/kg, po by LC-MS/MS analysis; type: ADME, organism-based
[13] = molecular target: Sigma non-opioid intracellular receptor 1 (Rattus norvegicus, UniProt Q9R0C9); assay: Displacement of [3H]-pentazocine from rat brain sigma1 receptor by PDSP assay
[14] = AUMC (0 to infinity) in Kun Ming mouse brain at 40 mg/kg, po by LC-MS/MS analysis; type: ADME, organism-based; settings: in vivo
[15] = molecular target: T2, Sodium-dependent serotonin transporter (Homo sapiens, UniProt P31645); assay: biochemical; type: cell-based, HEK293
Target sequence in this assay (P31645 whole entry): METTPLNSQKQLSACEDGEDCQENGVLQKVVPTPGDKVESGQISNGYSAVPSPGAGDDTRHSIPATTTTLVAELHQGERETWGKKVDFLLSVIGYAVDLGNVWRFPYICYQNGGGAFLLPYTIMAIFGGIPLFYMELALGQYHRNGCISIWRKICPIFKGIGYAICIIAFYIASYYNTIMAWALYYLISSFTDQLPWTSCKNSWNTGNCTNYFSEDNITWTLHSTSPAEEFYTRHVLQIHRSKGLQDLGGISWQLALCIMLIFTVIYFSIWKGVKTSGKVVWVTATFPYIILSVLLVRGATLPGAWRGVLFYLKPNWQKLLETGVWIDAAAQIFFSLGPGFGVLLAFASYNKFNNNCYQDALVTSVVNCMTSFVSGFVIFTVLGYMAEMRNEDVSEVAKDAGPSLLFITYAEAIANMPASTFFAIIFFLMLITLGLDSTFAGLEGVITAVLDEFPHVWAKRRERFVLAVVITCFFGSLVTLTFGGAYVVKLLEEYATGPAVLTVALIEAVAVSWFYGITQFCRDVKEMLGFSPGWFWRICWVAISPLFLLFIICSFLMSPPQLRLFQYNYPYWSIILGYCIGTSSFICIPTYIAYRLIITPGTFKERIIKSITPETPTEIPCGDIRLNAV
Description: Displacement of [3H]citalopram from human SERT expressed in HEK293 cells measured after 30 mins

[16] = AUC (0 to 8 hrs) in Kun Ming mouse brain at 40 mg/kg, po by LC-MS/MS analysis; type: ADME, organism-based; set-up: time < 8 hr, dose 40 mg/kg, route oral; settings: in vivo
[17] = molecular target: T3, Sodium-dependent dopamine transporter (Homo sapiens, UniProt Q01959)
Description: Displacement of [3H]-WIN35428 from human DAT expressed in HEK293 cells measured after 30 mins

[18] = Elimination rate constant in Kun Ming mouse plasma at 40 mg/kg, po by LC-MS/MS analysis; type: ADME, organism-based
[19] = AUC (0 to infinity) in Kun Ming mouse plasma at 40 mg/kg, po by LC-MS/MS analysis; type: ADME, organism-based; set-up: dose 40 mg/kg, route oral, time infinity
[20] = Ratio of Cmax in brain to plasma of Kun Ming mouse at 40 mg/kg, po; type: ADME, organism-based
[21] = AUMC (0 to 8 hrs) in Kun Ming mouse brain at 40 mg/kg, po by LC-MS/MS analysis; type: ADME, organism-based; settings: in vivo
[22] = Permeability of the compound after 18 hrs by PAMPA assay; type: ADME; settings: read-out: permeability
[23] = Ratio of AUC (0 to 8 hrs) in brain to plasma of Kun Ming mouse at 40 mg/kg, po; type: ADME, organism-based; settings: read-out: Ratio AUC
[24] = Tmax in Kun Ming mouse plasma at 40 mg/kg, po by LC-MS/MS analysis; type: ADME, organism-based
[25] = Half life in Kun Ming mouse plasma at 40 mg/kg, po by LC-MS/MS analysis; type: ADME, organism-based
[26] = AUC (0 to 8 hrs) in Kun Ming mouse plasma at 40 mg/kg, po by LC-MS/MS analysis; type: ADME, organism-based; set-up: time < 8 hr, dose 40 mg/kg, route oral
[27] = Cmax in Kun Ming mouse plasma at 40 mg/kg, po by LC-MS/MS analysis; type: ADME, organism-based; set-up: dose 40 mg/kg, route oral
[28] = molecular target: T3, Sodium-dependent dopamine transporter; assay: Displacement of [3H]-WIN35428 from human DAT expressed in HEK293 cells at 10 uM measured after 30 mins; type: cell-based
[29] = Elimination rate constant in Kun Ming mouse brain at 40 mg/kg, po by LC-MS/MS analysis; type: ADME, organism-based
[30] = molecular target: T2, Sodium-dependent serotonin transporter; settings: HEK293, at 10 µM
Target sequence in this assay (P31645 whole entry, looked up): as the sequence (P31645 whole entry) above
Description: Displacement of [3H]citalopram from human SERT expressed in HEK293 cells at 10 uM measured after 30 mins

Mus musculus [31] = assay: Antinociceptive activity in Kun Ming mouse assessed as reduction in paw licking and flinching time at 40 mg/kg, ip administered 15 mins prior to formalin challenge measured after 11 to 45 mins post formalin dosing relative to vehicle-treated control; type: functional, organism-based
[32] = molecular target: Sodium-dependent noradrenaline transporter (Homo sapiens, UniProt P23975); assay: Displacement of [3H]nisoxetine from human NET expressed in HEK293 cells measured after 30 mins; type: cell-based
[33] = molecular target: Sigma non-opioid intracellular receptor 1 (Cavia porcellus) (UniProt Q60492); assay: Binding affinity to sigma1 receptor form guinea pig brain membrane in presence of phenytoin […]
[34] = Ratio of AUC (0 to infinity) in brain to plasma of Kun Ming mouse at 40 mg/kg, po; type: ADME, organism-based; settings: read-out: Ratio AUC
[35] = Mean residence time in Kun Ming mouse brain at 40 mg/kg, po by LC-MS/MS analysis; type: ADME, organism-based

T3 sequence (Q01959 whole entry): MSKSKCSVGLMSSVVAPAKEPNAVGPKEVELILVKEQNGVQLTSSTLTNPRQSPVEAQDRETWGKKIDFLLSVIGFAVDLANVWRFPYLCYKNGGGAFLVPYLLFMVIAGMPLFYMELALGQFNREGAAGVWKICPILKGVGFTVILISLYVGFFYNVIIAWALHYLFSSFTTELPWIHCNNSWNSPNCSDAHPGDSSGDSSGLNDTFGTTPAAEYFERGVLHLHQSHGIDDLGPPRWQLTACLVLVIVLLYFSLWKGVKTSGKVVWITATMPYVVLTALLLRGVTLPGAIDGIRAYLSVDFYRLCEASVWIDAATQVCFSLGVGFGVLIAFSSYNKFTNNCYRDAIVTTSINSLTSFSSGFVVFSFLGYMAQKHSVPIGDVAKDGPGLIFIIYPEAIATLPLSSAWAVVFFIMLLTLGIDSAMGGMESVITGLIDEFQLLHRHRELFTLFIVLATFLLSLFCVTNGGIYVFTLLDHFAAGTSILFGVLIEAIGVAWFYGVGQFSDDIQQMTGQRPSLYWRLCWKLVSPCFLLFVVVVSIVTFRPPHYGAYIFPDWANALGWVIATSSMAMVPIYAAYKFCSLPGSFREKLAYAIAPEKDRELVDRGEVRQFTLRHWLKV
Sigma non-opioid intracellular receptor 1, sequence (Q9R0C9 whole entry): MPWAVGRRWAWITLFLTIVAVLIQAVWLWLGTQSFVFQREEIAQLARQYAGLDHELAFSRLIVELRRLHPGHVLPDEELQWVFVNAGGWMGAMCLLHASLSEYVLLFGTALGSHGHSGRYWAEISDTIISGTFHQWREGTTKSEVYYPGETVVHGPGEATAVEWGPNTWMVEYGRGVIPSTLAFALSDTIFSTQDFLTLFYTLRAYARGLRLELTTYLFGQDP
Sigma non-opioid intracellular receptor 1 (Rattus norvegicus), sequence (Q9R0C9 whole entry): as above
Sodium-dependent noradrenaline transporter, sequence (P23975 whole entry): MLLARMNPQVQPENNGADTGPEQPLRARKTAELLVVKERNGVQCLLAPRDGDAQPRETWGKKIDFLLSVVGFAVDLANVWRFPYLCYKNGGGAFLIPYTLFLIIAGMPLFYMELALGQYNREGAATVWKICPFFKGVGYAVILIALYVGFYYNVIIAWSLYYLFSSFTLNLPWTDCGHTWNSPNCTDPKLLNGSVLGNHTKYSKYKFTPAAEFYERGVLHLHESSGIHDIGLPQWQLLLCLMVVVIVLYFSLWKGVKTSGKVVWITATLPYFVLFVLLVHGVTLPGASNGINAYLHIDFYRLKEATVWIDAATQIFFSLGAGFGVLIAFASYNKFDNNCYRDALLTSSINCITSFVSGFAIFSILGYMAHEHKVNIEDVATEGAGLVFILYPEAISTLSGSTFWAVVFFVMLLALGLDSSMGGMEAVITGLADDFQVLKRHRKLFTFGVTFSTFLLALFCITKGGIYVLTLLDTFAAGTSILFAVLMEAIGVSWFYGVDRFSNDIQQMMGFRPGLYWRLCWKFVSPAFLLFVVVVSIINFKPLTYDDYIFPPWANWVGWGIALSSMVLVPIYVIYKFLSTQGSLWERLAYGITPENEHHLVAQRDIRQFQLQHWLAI
Sigma non-opioid intracellular receptor 1 (Cavia porcellus), sequence (Q60492 whole entry): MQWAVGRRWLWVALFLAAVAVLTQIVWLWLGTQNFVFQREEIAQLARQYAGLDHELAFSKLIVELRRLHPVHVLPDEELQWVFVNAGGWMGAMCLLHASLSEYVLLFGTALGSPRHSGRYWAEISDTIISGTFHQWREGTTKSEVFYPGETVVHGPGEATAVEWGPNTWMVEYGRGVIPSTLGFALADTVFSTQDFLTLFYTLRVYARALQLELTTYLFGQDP

Q: For `CN(CCOc1cc(COc2ccccc2)on1)CC1CC1.Cl`, which Tmax [1] is on record?
A: 0.167 h

Q: And the inhibition [2]?
A: > 50%

Q: What about the Activity (Mus musculus [3]) of the same molecule?
A: inactive

Q: What about the Activity (Mus musculus [4]) of the same molecule?
A: Active

Q: What about the Cmax [5] of the same molecule?
A: 395 ng/g

Q: And the AUC [6]?
A: 403 ng·h/g

Q: And the MRT [7]?
A: 1.39 h

Q: And the AUMC [8]?
A: 157 hr.hr.ng/ml

Q: What about the Ki [9] of the same molecule?
A: 225 nM

Q: What about the AUMC [10] of the same molecule?
A: 91.5 hr.hr.ng/ml

Q: And the Activity [11]?
A: Non-Toxic

Q: What about the half-life [12] of the same molecule?
A: 2.52 h

Q: What about the Ki [13] of the same molecule?
A: 0.8 nM

Q: What about the AUMC [14] of the same molecule?
A: 935 hr.hr.ng/g

Q: And the Ki [15]?
A: > 10000 nM

Q: And the AUC [16]?
A: 373 ng·h/g

Q: And the Ki [17]?
A: > 10000 nM

Q: And the k el [18]?
A: 7.31e-05 s⁻¹

Q: And the AUC(0-inf) [19]?
A: 113 ng·h/mL

Q: And the Kp [20]?
A: 2

Q: What about the AUMC [21] of the same molecule?
A: 578 hr.hr.ng/g

Q: What about the Papp at 18 h [22] of the same molecule?
A: 2 to 4 ×10⁻⁶ cm/s

Q: What about the Kp [23] of the same molecule?
A: 3.6

Q: What about the Tmax [24] of the same molecule?
A: 0.167 h

Q: What about the half-life [25] of the same molecule?
A: 2.64 h

Q: And the AUC(0-t) at 8 h [26]?
A: 108 ng·h/mL

Q: And the Cmax [27]?
A: 193 ng/mL

Q: What about the inhibition [28] of the same molecule?
A: < 50%

Q: What about the k el [29] of the same molecule?
A: 7.67e-05 s⁻¹

Q: What about the inhibition [30] of the same molecule?
A: < 50%

Q: What about the Activity (Mus musculus [31]) of the same molecule?
A: Active

Q: And the Ki [32]?
A: > 10000 nM

Q: And the Activity [33]?
A: inactive

Q: And the Kp [34]?
A: 3.6

Q: What about the MRT [35] of the same molecule?
A: 2.32 h
